Assay results published in ChEMBL document CHEMBL3351815, “Synthesis of fluorinated agonist of sphingosine-1-phosphate receptor 1” (Bioorg Med Chem, 2014).
Activity calls are given as the source filed them. No cut-off for these calls is given here.

Tests used:
[1] = target: Sphingosine 1-phosphate receptor 1 (Homo sapiens) (UniProt P21453); assay: Agonist activity at S1P receptor in human C4-2B cells assessed as increase in proliferation at 100 nM after 24 hrs by [3H]-thymidine incorporation assay; assay type: cell-based
[2] = target: Sphingosine 1-phosphate receptor 1 (Homo sapiens) (UniProt P21453); assay: Agonist activity at S1P receptor in human PC3 cells assessed as increase in proliferation at 100 nM after 24 hrs by [3H]-thymidine incorporation assay; assay type: cell-based; settings: PC-3
[3] = tested on: PC-3; assay: Antiproliferative activity against human PC3 cells assessed as reduction in proliferation at 1 to 10 uM after 24 hrs by MTT assay; assay type: functional, cell-based
[4] = tested on: LNCaP C4-2B; assay: Antiproliferative activity against human C4-2B cells assessed as reduction in proliferation at 1 to 100 uM after 24 hrs by MTT assay; assay type: functional, cell-based
[5] = Antiproliferative activity against human PC3 cells assessed as reduction in proliferation after 24 hrs by [3H]-thymidine incorporation assay; assay type: functional, cell-based; settings: PC-3
[6] = Antiproliferative activity against human C4-2B cells assessed as reduction in proliferation after 24 hrs by [3H]-thymidine incorporation assay; assay type: functional, cell-based; settings: LNCaP C4-2B

Sequence of Sphingosine 1-phosphate receptor 1 (Homo sapiens) (P21453 whole entry): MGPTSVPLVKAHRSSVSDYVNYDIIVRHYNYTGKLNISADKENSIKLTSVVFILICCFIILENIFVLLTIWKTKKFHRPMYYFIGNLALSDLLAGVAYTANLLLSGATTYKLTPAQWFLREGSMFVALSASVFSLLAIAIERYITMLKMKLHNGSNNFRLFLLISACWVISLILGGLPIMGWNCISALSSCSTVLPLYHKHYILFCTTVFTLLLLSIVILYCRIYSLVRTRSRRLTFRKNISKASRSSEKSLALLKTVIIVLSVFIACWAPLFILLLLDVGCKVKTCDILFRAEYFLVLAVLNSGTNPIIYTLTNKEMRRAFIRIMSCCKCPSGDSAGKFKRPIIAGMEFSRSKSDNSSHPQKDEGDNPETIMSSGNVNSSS

| SMILES | Activity [1] | Activity [2] | inhibition [3] | inhibition [4] | IC50 [5] [µM] | IC50 [6] [µM] |
| --- | --- | --- | --- | --- | --- | --- |
| CCCCCCCCc1ccc(CCC(N)(CO)COP(=O)(O)O)cc1 (stereo not given) | Active | Active |  |  |  |  |
| CCCCCCCCCCCCC/C=C/[C@@H](O)[C@@H](N)COP(=O)(O)O | Active | Active |  |  |  |  |
| CCCCCCCCc1ccc(CCC(N)CC(F)(F)P(=O)(O)O)cc1 (stereo not given) | inactive | inactive | Active | Active | 20 | 3 |
